Several values for one entry are separate records, joined by “and”; a condition that tells them apart may be missing. Equal entries are not always repeated.
Test: NHP health screening: hematology (CBC)
Assay type: in vivo, rhesus macaques (Macaca mulatta)
Details: treated macaques, individual animals
Experimental: Under light-anesthesia/sedation, peripheral blood samples were collected from each animal prior to treatment and at 7 time points following. Blood analysis (CBC and serum chemistry assays) and physical exams to evaluate the health of the study animals were performed on each animal prior to the beginning of the study and also at three time points during the treatment protocol (see Supplementary data).

Cc1c(C(=O)N[C@H](C(=O)OCC2CCOCC2)C(C)C)ccc2c1B(O)OC2 [AN15368]
Hct (mid-dosing bleed): 41.2% and 42.7% and 40.7% and 46.1% and 39.7% and 43.4% and 40% and 40.3% and 41.5% and 41.9% and 42% and 39.6% and 43.3% and 43.7% and 42.6% and 38.2% and 38.9% and 39.9%
Hgb (mid-dosing bleed): 13.1 G/Dl and 14.2 G/Dl and 12.7 G/Dl and 14.6 G/Dl and 12.8 G/Dl and 13.9 G/Dl and 13.4 G/Dl and 13.5 G/Dl and 12.5 G/Dl and 12.6 G/Dl and 14 G/Dl and 13.6 G/Dl and 11.9 G/Dl and 12.9 G/Dl
Lymp (mid-dosing bleed): 3.35 10^3/µL and 4.79 10^3/µL and 3.28 10^3/µL and 5.22 10^3/µL and 2.3 10^3/µL and 2.17 10^3/µL and 3.7 10^3/µL and 4.02 10^3/µL and 5.12 10^3/µL and 2.39 10^3/µL and 2.58 10^3/µL and 3.15 10^3/µL and 3.84 10^3/µL and 2.63 10^3/µL and 2.99 10^3/µL and 4.63 10^3/µL and 1.5 10^3/µL and 2.51 10^3/µL and 3.89 10^3/µL
Mch (mid-dosing bleed): 23.8 Pgs and 22.9 Pgs and 24.1 Pgs and 24.7 Pgs and 24 Pgs and 22.6 Pgs and 24.4 Pgs and 23.9 Pgs and 22.5 Pgs and 23.1 Pgs and 23.3 Pgs and 23.7 Pgs and 22.8 Pgs and 23 Pgs and 22.7 Pgs and 23.6 Pgs
Mchc (mid-dosing bleed): 31.8 G/Dl and 33.3 G/Dl and 31.2 G/Dl and 31.7 G/Dl and 32.2 G/Dl and 32 G/Dl and 32.8 G/Dl and 32.5 G/Dl and 30.8 G/Dl and 32.1 G/Dl and 31.6 G/Dl and 31.9 G/Dl and 33.2 G/Dl and 32.3 G/Dl
Mcv (mid-dosing bleed): 74.9 fL and 68.9 fL and 77.2 fL and 78 fL and 74.5 fL and 70.8 fL and 74.6 fL and 73.8 fL and 72.9 fL and 76.6 fL and 72.2 fL and 76.4 fL and 74.7 fL and 74.4 fL and 71.4 fL and 72.1 fL and 71.2 fL
Mono (mid-dosing bleed): 0.25 10^3/µL and 0.22 10^3/µL and 0.19 10^3/µL and 0.43 10^3/µL and 0.26 10^3/µL and 0.21 10^3/µL and 0.16 10^3/µL and 0.58 10^3/µL and 0.3 10^3/µL and 0.38 10^3/µL and 0.13 10^3/µL and 0.32 10^3/µL and 0.28 10^3/µL and 0.08 10^3/µL and 0.17 10^3/µL and 0.5 10^3/µL
Mpv (mid-dosing bleed): 6.5 fL and 7.2 fL and 7.4 fL and 9.2 fL and 9.1 fL and 6.8 fL and 6.6 fL and 6.7 fL and 7.7 fL and 8.1 fL and 7.9 fL and 7.1 fL and 7.5 fL and 8.8 fL and 8.5 fL
Neut (mid-dosing bleed): 1.09 10^3/µL and 1.04 10^3/µL and 2.08 10^3/µL and 1.9 10^3/µL and 3.38 10^3/µL and 1.51 10^3/µL and 1.78 10^3/µL and 2.28 10^3/µL and 1.12 10^3/µL and 2.03 10^3/µL and 1.69 10^3/µL and 3.43 10^3/µL and 3.82 10^3/µL and 1.6 10^3/µL and 3.07 10^3/µL and 1.17 10^3/µL and 1.61 10^3/µL and 1.53 10^3/µL and 0.96 10^3/µL
Plt (mid-dosing bleed): 354 10^3/µL and 311 10^3/µL and 210 10^3/µL and 266 10^3/µL and 220 10^3/µL and 317 10^3/µL and 438 10^3/µL and 380 10^3/µL and 279 10^3/µL and 251 10^3/µL and 373 10^3/µL and 367 10^3/µL and 434 10^3/µL and 280 10^3/µL and 260 10^3/µL and 432 10^3/µL and 291 10^3/µL and 288 10^3/µL and 306 10^3/µL
Rbc (mid-dosing bleed): 5.5 10^6/µL and 6.2 10^6/µL and 5.27 10^6/µL and 5.91 10^6/µL and 5.33 10^6/µL and 6.13 10^6/µL and 5.36 10^6/µL and 5.46 10^6/µL and 5.69 10^6/µL and 5.47 10^6/µL and 5.82 10^6/µL and 5.18 10^6/µL and 5.8 10^6/µL and 5.32 10^6/µL and 6.12 10^6/µL and 5.24 10^6/µL
Rdw (mid-dosing bleed): 12.8% and 11.9% and 12.5% and 12.1% and 12.7% and 12% and 13.5% and 12.9% and 12.4% and 11.3% and 12.3%
Wbc (mid-dosing bleed): 4.78 10^3/µL and 6.15 10^3/µL and 5.63 10^3/µL and 7.65 10^3/µL and 6 10^3/µL and 3.99 10^3/µL and 5.7 10^3/µL and 7.05 10^3/µL and 6.59 10^3/µL and 4.73 10^3/µL and 4.52 10^3/µL and 7.07 10^3/µL and 8.23 10^3/µL and 4.45 10^3/µL and 6.3 10^3/µL and 3.22 10^3/µL and 4.27 10^3/µL and 5.62 10^3/µL
Baso (post-dosing bleed): 0.01 10^3/µL and 0.02 10^3/µL and 0 10^3/µL and 0.04 10^3/µL and 0.03 10^3/µL
Eos (post-dosing bleed): 0.05 10^3/µL and 0.15 10^3/µL and 0.06 10^3/µL and 0.02 10^3/µL and 0.09 10^3/µL and 0.04 10^3/µL and 0.13 10^3/µL and 0.03 10^3/µL and 0.23 10^3/µL and 0.2 10^3/µL and 0.18 10^3/µL
Hct (post-dosing bleed): 38.2% and 41.9% and 37.7% and 43% and 39.5% and 42.7% and 41% and 42.1% and 39.9% and 41.8% and 40.8% and 39.1% and 40.4% and 43.7% and 37.1% and 39.6% and 41.1%
Hgb (post-dosing bleed): 12.2 G/Dl and 14.1 G/Dl and 12 G/Dl and 13.9 G/Dl and 12.7 G/Dl and 13.1 G/Dl and 13.5 G/Dl and 12.6 G/Dl and 13.4 G/Dl and 12.1 G/Dl and 14 G/Dl and 13 G/Dl and 11.7 G/Dl and 12.9 G/Dl
Lymp (post-dosing bleed): 2.22 10^3/µL and 5.87 10^3/µL and 2.42 10^3/µL and 3.66 10^3/µL and 1.59 10^3/µL and 1.61 10^3/µL and 1.2 10^3/µL and 2.96 10^3/µL and 2.61 10^3/µL and 1.64 10^3/µL and 1.73 10^3/µL and 2.56 10^3/µL and 2.26 10^3/µL and 3.27 10^3/µL and 1.82 10^3/µL and 3.4 10^3/µL and 2.49 10^3/µL and 4.82 10^3/µL
Mch (post-dosing bleed): 24 Pgs and 23.3 Pgs and 24.2 Pgs and 24.8 Pgs and 24.1 Pgs and 22.8 Pgs and 23.6 Pgs and 22.7 Pgs and 25.1 Pgs and 23.5 Pgs and 24.3 Pgs and 23 Pgs and 23.2 Pgs and 23.4 Pgs
Mchc (post-dosing bleed): 31.9 G/Dl and 33.7 G/Dl and 31.8 G/Dl and 32.3 G/Dl and 32.2 G/Dl and 32.6 G/Dl and 32 G/Dl and 32.1 G/Dl and 31.6 G/Dl and 33.3 G/Dl and 32.8 G/Dl and 30.9 G/Dl and 32.4 G/Dl and 31.5 G/Dl and 31.4 G/Dl
Mcv (post-dosing bleed): 74.9 fL and 69.4 fL and 76 fL and 76.5 fL and 75.1 fL and 70 fL and 75.4 fL and 73.3 fL and 71.9 fL and 75.6 fL and 71 fL and 76.1 fL and 75 fL and 71.5 fL and 72 fL and 73.8 fL and 71.1 fL
Mono (post-dosing bleed): 0.18 10^3/µL and 0.32 10^3/µL and 0.21 10^3/µL and 0.33 10^3/µL and 0.22 10^3/µL and 0.38 10^3/µL and 0.54 10^3/µL and 0.11 10^3/µL and 0.26 10^3/µL and 0.1 10^3/µL and 0.28 10^3/µL and 0.15 10^3/µL and 0.34 10^3/µL
Mpv (post-dosing bleed): 6.6 fL and 7.5 fL and 7.4 fL and 10.2 fL and 8.7 fL and 6.9 fL and 7.1 fL and 7 fL and 6.7 fL and 8.3 fL and 8 fL and 6.4 fL and 8.4 fL and 7.2 fL and 6.8 fL
Neut (post-dosing bleed): 3.01 10^3/µL and 0.97 10^3/µL and 0.98 10^3/µL and 1.76 10^3/µL and 2.92 10^3/µL and 2.28 10^3/µL and 2.06 10^3/µL and 3.85 10^3/µL and 1.41 10^3/µL and 3.58 10^3/µL and 1.8 10^3/µL and 3.13 10^3/µL and 5.36 10^3/µL and 1.54 10^3/µL and 2.18 10^3/µL and 3.21 10^3/µL and 2.83 10^3/µL and 2.26 10^3/µL and 1.29 10^3/µL
Plt (post-dosing bleed): 418 10^3/µL and 319 10^3/µL and 265 10^3/µL and 238 10^3/µL and 242 10^3/µL and 283 10^3/µL and 400 10^3/µL and 311 10^3/µL and 246 10^3/µL and 364 10^3/µL and 390 10^3/µL and 478 10^3/µL and 296 10^3/µL and 291 10^3/µL and 431 10^3/µL and 302 10^3/µL and 342 10^3/µL and 357 10^3/µL
Rbc (post-dosing bleed): 5.1 10^6/µL and 6.04 10^6/µL and 4.96 10^6/µL and 5.62 10^6/µL and 5.26 10^6/µL and 6.1 10^6/µL and 5.44 10^6/µL and 5.74 10^6/µL and 5.55 10^6/µL and 5.53 10^6/µL and 5.75 10^6/µL and 5.14 10^6/µL and 5.39 10^6/µL and 6.11 10^6/µL and 5.61 10^6/µL and 5.03 10^6/µL and 5.57 10^6/µL and 5.49 10^6/µL
Rdw (post-dosing bleed): 12.7% and 12.2% and 13% and 12% and 13.5% and 11.7% and 12.6% and 12.5% and 13.3% and 11.9% and 12.9% and 12.4% and 12.3% and 11% and 12.8%
Wbc (post-dosing bleed): 5.48 10^3/µL and 7.33 10^3/µL and 3.67 10^3/µL and 5.82 10^3/µL and 4.76 10^3/µL and 4.2 10^3/µL and 3.7 10^3/µL and 7.52 10^3/µL and 4.16 10^3/µL and 5.51 10^3/µL and 3.69 10^3/µL and 6.15 10^3/µL and 8.14 10^3/µL and 5.08 10^3/µL and 4.41 10^3/µL and 7.03 10^3/µL and 5.73 10^3/µL and 4.11 10^3/µL and 6.68 10^3/µL
